# Results as given in patent US20080064027A1, “TEL/Etv6-mediated inhibition of cell proliferation” (priority 2002, published 2008).
# Read-outs that look alike come from different tables or passages of the source.
# Legend:
# [1] = tested on: Stat3 transcriptional activity; assay: APRE-driven luciferase reporter assay; type: cell-based; conditions: for Relative Luciferase Activity: 24 hours, control = 1; for Stat3-dependent transcription of luciferase, increase over control: Stat3-ER-expressing A375, without TEL siRNA
# Source text: Luciferase assays are used to verify that the Stat3-ER construct is transcriptionally active. For this purpose, a luciferase reporter gene driven by the acute-phase response element (APRE) of the alpha 2-macroglobulin gene, a target for Stat1 and Stat3, was used.
# Cells (2×10^6 cells/6 well dish) were transfected with a reporter plasmid containing four copies of acute phase responsible element (APRE) upstream of the minimal junB promoter linked to the luciferase gene (T Hirano, EMBO Journal, 1996, 15, 3651-3658), together with the internal control plasmid pRL-SV40 from Promega (Madison, Wis.). Twenty-four hours after the transfection, cells were either left unstimulated or stimulated with OSM (PeproTechEC, London, United Kingdom), 4-hydroxytamoxifen (4HT; Sigma, St. Louis, Mo.) or a combination of 4HT/OSM for 24 hours. The preparation of cell extracts and measurement of luciferase activities were carried out using the Dual-Luciferase reporter assay system from Promega (Madison, Wis.) in an Autolumat LB 953 (Berthold Technologies, Wildbad, Germany). Changes in firefly luciferase activity were expressed relative to Renilla luciferase activity in the same sample.
# C/EBPdelta mRNA = assay: C/EBPdelta expression (quantitative PCR); type: cell-based; conditions: quantitative PCR
# Description: A LacZ siRNA was used as control. The designed RNA oligonucleotides were ‘blasted’ against the GENBANK/EMBL databank to ensure gene specificity. The RNA oligonucleotides were obtained commercially. Transfection with expression vectors was carried out 1 day after the siRNA transfection using Effectene.
# TEL [2] = assay: TEL protein level by Western blotting; type: cell-based; conditions: for TEL isoforms (TEL and TEL43) expression: ASER cells
# Description: Protein analysis was carried out by Western blotting. In brief, cells were harvested in NP40 extraction buffer (50 mM Tris (pH 7.5), 1 mM EGTA, 5 mM EDTA, 120 mM NaCl, 1% NP40, 2 mM sodium orthovanadate, 50 mM sodium fluoride, 20 mM ? -glycerophosphate, 10 μg/ml leupeptin, 10 μg/ml aprotinin, and 0.5 mM phenylmethylsulfonyl fluoride) for 5 min on ice. The lysates were clarified by centrifugation and protein concentrations were determined using the Bio-Rad protein assay reagent (Bio-Rad Laboratories Gmbh, Munich, Germany). For immunoprecipitaton, equal amounts of proteins were incubated with Stat3 (C-20) from Santa Cruz Biotechnology (Santa Cruz, Calif.) for 1 hr. Following SDS-polyacrylamide gel eletrophoresis (SDS-PAGE), proteins were blotted onto polyvinylidene difluoride membranes (Boehringer Mannheim, Mannheim, Germany). After blocking with 10% horse serum (Life Technologies, Inc.) in 50 mM Tris pH 7.5, 150 mM NaCl, 0.05% Tween 20, filters were probed with specific antibodies; c-TEL, Stat3 (C-20) from Santa Cruz Biotechnology (Santa Cruz, Calif.), phospho-Stat3 (Tyr 705) from Cell Signaling Technology (Beverly, Mass.). Proteins were visualized with peroxidase-coupled secondary antibodies using the enhanced chemiluminescence detection system (Amersham Pharmacia Biotech, Little Chalfont, United Kingdom).
# parent A375 cells = assay: Proliferation of parent A375 cells; conditions: 4HT 1 microM
# Stat3-ER = target: T1, Stat3-ER (UniProt P19785+P40763, G525R); assay: Stat3 oligonucleotide DNA binding assay on nuclear extracts; type: cell-based
# T1 construct: expressed in transfected cells
# Description: DNA binding assays were carried out using cells stimulated with 4HT (1 microM) for 0, 0.3, 1, 2, 4 and 24 hours. […] Samples were centrifuged and the pellet was washed two more times with binding buffer. Proteins were eluted from beads by boiling in 25 microliters of 2× loading buffer (1% DTT, 4% SDS, 20% Glycerol, 0.02% Bromophenol Blue, 0.25 M TrisHCl 1M 6.8 pH) and SDS-PAGE was performed.
# DNA binding of Stat3-ER and endogenous Stat3 was monitored by performing Western analysis on the oligonucleotide-bound proteins.
# A375-Stat3-ER cells = conditions: for reduction of A375-Stat3ER cell number: 3 days
# Description: In order to evaluate the role of Stat3 in A375 cell proliferation, A375-Stat3-ER cells were grown in the presence of OSM or 4HT and cell number determined over 3 days.
# TEL [3] = assay: TEL expression in human cancer cell lines; type: cell-based
# Source text: TEL is usually expressed as two protein isoforms corresponding to initiation of TEL mRNA translation at ATG codon 1 and 43 (TEL and TEL43). […] To ascertain if TEL is a natural target of Stat3, we examined its expression in human cancer cell lines in response to OSM or IL-6. […] However, TEL expression was unchanged in other cell lines, including the prostate cancer cells PC3 and LNCaP and MDA-MB-468 breast cancer cells, even though it was expected that Stat3 is activated in each of these cell lines by IL-6/OSM treatment.
# Stat3 = assay: TEL-Stat3 interaction, immunoprecipitation from nuclear extracts; type: binding
# Description: Since the TEL DNA-binding domain is not required for repression of Stat3 activity, this Example tests the possibility that TEL interacts directly with Stat3. Extracts from nuclear-enriched fractions were prepared from control or OSM-stimulated A375 cells. […] Endogenous TEL was present in Stat3 immunoprecipitates and the levels of TEL associating with Stat3 increased in OSM-treated compared to control-treated nuclear extracts. Conversely, Stat3 is present in a TEL-containing complex, pulled down through an immobilized GGM-containing oligonucleotide, which is a binding site for TEL.
# [4] = 4HT 1 microM, Stat3-ER expressing A375 cells
# [5] = 24 h, 4HT 1 microM, OSM 100 ng/ml, control 1.48
# [6] = 48 h, 4HT 1 microM, OSM 100 ng/ml, control 4.33
# [7] = 72 h, 4HT 1 microM, OSM 100 ng/ml, control 7.83
# [8] = nuclear lysates of OSM-stimulated A375 cells
# T1 sequence (P40763+P19785 fused P19785:G525R): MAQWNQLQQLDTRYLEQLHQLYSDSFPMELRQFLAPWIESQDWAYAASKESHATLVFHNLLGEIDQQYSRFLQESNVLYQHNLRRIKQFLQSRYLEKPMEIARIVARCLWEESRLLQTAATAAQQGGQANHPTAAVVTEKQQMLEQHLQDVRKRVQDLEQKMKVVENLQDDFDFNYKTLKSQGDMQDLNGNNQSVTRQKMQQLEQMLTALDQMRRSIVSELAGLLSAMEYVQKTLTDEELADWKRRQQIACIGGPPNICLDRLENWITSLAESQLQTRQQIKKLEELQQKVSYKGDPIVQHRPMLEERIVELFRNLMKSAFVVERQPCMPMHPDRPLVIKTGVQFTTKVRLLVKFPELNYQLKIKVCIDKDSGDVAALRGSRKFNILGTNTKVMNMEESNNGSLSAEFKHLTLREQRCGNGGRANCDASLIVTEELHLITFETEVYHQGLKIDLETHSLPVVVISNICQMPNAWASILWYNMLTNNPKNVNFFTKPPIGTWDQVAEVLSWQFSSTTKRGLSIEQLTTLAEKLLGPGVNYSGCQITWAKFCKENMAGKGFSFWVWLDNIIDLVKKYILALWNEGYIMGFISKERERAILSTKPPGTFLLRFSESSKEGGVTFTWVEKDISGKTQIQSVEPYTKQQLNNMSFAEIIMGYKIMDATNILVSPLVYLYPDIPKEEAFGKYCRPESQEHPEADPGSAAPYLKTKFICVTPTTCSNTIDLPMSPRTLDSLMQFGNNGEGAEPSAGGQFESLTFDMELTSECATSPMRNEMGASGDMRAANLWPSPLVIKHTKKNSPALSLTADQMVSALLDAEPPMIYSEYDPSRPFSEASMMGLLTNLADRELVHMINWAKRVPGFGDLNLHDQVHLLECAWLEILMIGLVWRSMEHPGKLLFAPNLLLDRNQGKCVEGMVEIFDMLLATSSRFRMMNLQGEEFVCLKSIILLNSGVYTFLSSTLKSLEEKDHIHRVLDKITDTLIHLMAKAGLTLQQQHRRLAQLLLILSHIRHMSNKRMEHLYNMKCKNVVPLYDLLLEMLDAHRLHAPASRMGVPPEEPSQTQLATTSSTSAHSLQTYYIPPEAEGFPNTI
molecule,measurement,setting,value
"CCC(=C(c1ccc(O)cc1)c1ccc(OCCN(C)C)cc1)c1ccccc1 [4HT, 4-hydroxytamoxifen, reference compound]",Relative Luciferase Activity,[1]; [4],29
same,stimulation of transcription from the APRE,[1]; [4],more efficiently than 100 ng/ml OSM
same,"Stat3-dependent transcription of luciferase, increase over control",[1],about 6 fold
same,C/EBPdelta mRNA,C/EBPdelta mRNA,significantly increased
same,TEL protein level upon treatment,TEL [2]; Stat3-ER-expressing A375 cells,strongly increased
same,TEL isoforms (TEL and TEL43) expression,TEL [2]; after 24 hrs of treatment,strongly increased
same,TEL isoforms (TEL and TEL43) expression,TEL [2]; within 8 hrs of 4HT addition,significantly increased
same,proliferation of the parent A375 cells,parent A375 cells,does not affect proliferation
same,earliest time at which Stat3ER-DNA binding was detected after stimulation,Stat3-ER; 4HT 1 microM,20 min
same,time of maximum measured Stat3ER-DNA binding,Stat3-ER; 4HT 1 microM,24 h
same,Stat3-ER nuclear translocation and DNA binding to Stat3-specific oligonucleotide probe,"Stat3-ER; 4HT 1 microM, Stat3-ER-expressing A375 cells",induced nuclear translocation and DNA-binding
same,Number of Cells,A375-Stat3-ER cells; 0 h (start of treatment),0.8 ×10^5
same,reduction of A375-Stat3ER cell number,"A375-Stat3-ER cells; 4HT 1 microM, OSM 100 ng/ml",about 40%
same,Number of Cells,A375-Stat3-ER cells; [5],1.49 ×10^5
same,Number of Cells,A375-Stat3-ER cells; [6],3.60 ×10^5
same,Number of Cells,A375-Stat3-ER cells; [7],4.44 ×10^5
oncostatin M [OSM],"activation of Stat3 transcriptional activity among IL-6 family members tested (IL-6, LIF)",[1]; A375 cells,most potent activator
same,Relative Luciferase Activity,"[1]; OSM 1 ng/ml, Stat3-ER expressing A375 cells",3
same,Relative Luciferase Activity,"[1]; OSM 10 ng/ml, Stat3-ER expressing A375 cells",9
same,Relative Luciferase Activity,"[1]; OSM 100 ng/ml, Stat3-ER expressing A375 cells",18
same,"Stat3-dependent transcription of luciferase, increase over control",[1],about 9 fold
same,TEL expression,"TEL [3]; PC3, LNCaP prostate cancer cells and MDA-MB-468 breast cancer cells",unchanged
same,TEL expression,"TEL [3]; T47D and SKBr-3 breast cancer cells, DU145 prostate carcinoma cells, HepG2 hepatoma-derived cells",significantly increased
same,levels of TEL associating with Stat3 in Stat3 immunoprecipitates,Stat3; OSM-treated compared to control-treated nuclear extracts,increased
same,nuclear Stat3 levels,Stat3; [8],expected increase in Stat3 levels
same,nuclear content of TEL,Stat3; [8],not affected
same,endogenous Stat3 DNA binding after OSM addition,Stat3-ER; cells pretreated with 4HT for 24 hrs,could be detected 15 min after addition of OSM and decreased after 1 hr of treatment
same,Stat3-ER DNA binding in the presence of OSM,"Stat3-ER; cells pretreated with 4HT for 24 hrs, remained bound for the entire course",enhanced
same,Number of Cells,A375-Stat3-ER cells; 0 h (start of treatment),0.8 ×10^5
same,reduction of A375-Stat3ER cell number,"A375-Stat3-ER cells; 4HT 1 microM, OSM 100 ng/ml",about 40%
same,Number of Cells,A375-Stat3-ER cells; [5],1.15 ×10^5
same,Number of Cells,A375-Stat3-ER cells; [6],2.58 ×10^5
same,Number of Cells,A375-Stat3-ER cells; [7],4.35 ×10^5
